Measurements published in patent US8946238B2, “Pyrazolo[1,5-A]pyrimidines as antiviral agents” (Gilead Sciences, Inc., priority 2011, dated 2015).

Tested on: RSV strain A2
Test: RSV antiviral cytoprotection assay in Hep2 cells (RSV-induced cytopathic effect, Cell TiterGlo)
Format: cell-based, Respiratory Syncytial Virus (RSV)
Conditions: RSV A2-infected Hep2 cells, % inhibition calculated from 4-parameter dose response curve, normalized to 0% and 100%; for inhibition at 0.5 µM: human respiratory syncytial virus, HEp-2, 0.5 μM compound, read-out: Percent inhibition at 0.5 μM
Method: Antiviral activity against RSV was determined using an in vitro cytoprotection assay in Hep2 cells. […] The method used was similar to methods previously described in published literature (Chapman et al., Antimicrob Agents Chemother. 2007, 51(9):3346-53.)
Hep2 cells were obtained from ATCC (Manassas, VI) and maintained in MEM media supplemented with 10% fetal bovine serum and penicillin/streptomycin. Cells were passaged twice a week and kept at subconfluent stage. Commercial stock of RSV strain A2 (Advanced Biotechnologies, Columbia, Md.) was titered before compound testing to determine the appropriate dilution of the virus stock that generated desirable cytopathic effect in Hep2 cells.
For antiviral tests, Hep2 cells were seeded into 96-well plates 24 hours before the assay at a density of 3,000 cells/well. On a separate 96 well plate, compounds to be tested were serially diluted in cell culture media. Eight concentrations in 3-fold serial dilution increments were prepared for each tested compound and 100 uL/well of each dilution was transferred in duplicate onto plates with seeded Hep2 cells. Subsequently, appropriate dilution of virus stock previously determined by titration was prepared in cell culture media and 100 uL/well was added to test plates containing cells and serially diluted compounds. Each plate included three wells of infected untreated cells and three wells of uninfected cells that served as 0% and 100% virus inhibition control, respectively. Following the infection with RSV, testing plates were incubated for 4 days in a tissue culture incubator. After the incubation, RSV-induced cytopathic effect was determined using a Cell TiterGlo reagent (Promega, Madison, Wis.) followed by a luminescence read-out. The percentage inhibition was calculated for each tested concentration relative to the 0% and 100% inhibition controls and the EC50 value for each compound was determined by non-linear regression as a concentration inhibiting the RSV-induced cytopathic effect by 50%. Ribavirin (purchased from Sigma, St. Louis, Mo.) was used as a positive control for antiviral activity.
Compounds were also tested for antiviral activity against RSV in Hep2 cells using a 384 well format. Compounds were diluted in DMSO using a 10-step serial dilution in 3-fold increments via automation in 4 adjacent replicates each. Eight compounds were tested per dilution plate. 0.4 uL of diluted compounds were then stamped via Biomek into 384-well plates (Nunc 142761 or 164730 w/lid 264616) containing 20 μL of media (Mediatech Inc. MEM supplemented with Glutamine, 10% FBS and Pen/Strep). DMSO and a suitable positive control compound, such as 80 μM GS-329467 or 10 μM 427346 was used for the 100% and 0% cell killing controls, respectively.
Hep2 cells (1.0×10^5 cells/ml) were prepared as above in batch to at least 40 mls excess of the number of sample plates (8 mls cell mix per plate) and infected with vendor supplied (ABI) RSV strain A2 to arrive at an MOI of 1:1000 (virus:cell #) or 1:3000 (vol virus: cell vol). Immediately after addition of virus, the RSV infected Hep2 cell suspension was added to each stamped 384-well plate at 20 μl per well using a uFlow dispenser, giving a final volume of 40 μL/well, each with 2000 infected cells. The plates were then incubated for 5 days at 37° C. and 5% CO2. Following incubation, the plates were equilibrated to room temperature in a biosafety cabinet hood for 1.5 hrs and 40 μL of Cell-Titer Glo viability reagent (Promega) was added to each well via uFlow. Following a10-20 minute incubation, the plates were read using an EnVision or Victor Luminescence plate reader (Perkin-Elmer). The data was then uploaded and analyzed on the Bioinformatics portal under the RSV Cell Infectivity and 8-plate EC50-Hep2-384 or 8-plate EC50-Hep2-Envision protocols. […]

Cc1cn2nc([C@@H]3CCCCN3C(=O)c3ccc4cccc(F)c4n3)cc2nc1N1CC[C@H](N)C1 [Compound 52]
inhibition at 0.5 µM: 71%

Cc1ccc(Cl)c(C(=O)N2CCCC[C@H]2c2cc3nc(N4C[C@@H](C#N)[C@@H](O)C4)c(C)cn3n2)c1 [Compound 170]
inhibition at 0.5 µM: 100%

CCc1ccc(C(=O)N2CCCC[C@H]2c2cc3nc(N4CC[C@H](N)C4)c(C)cn3n2)nc1 [Compound 110]
inhibition at 0.5 µM: 36%

Cc1cn2nc([C@@H]3CCCCN3C(=O)c3ccc(C)c(F)c3F)cc2nc1N1C[C@@H](C#N)[C@@H](O)C1 [Compound 118]
inhibition at 0.5 µM: 99%

Cc1cn2nc([C@@H]3CCCCN3C(=O)c3cccc(-c4ccccc4)n3)cc2nc1N1CC[C@H](N)C1 [Compound 80]
inhibition at 0.5 µM: 14%

Cc1cn2nc([C@@H]3CCCCN3C(=O)c3nc(Cl)ccc3Cl)cc2nc1N1C[C@@H](C#N)[C@@H](O)C1 [Compound 152]
inhibition at 0.5 µM: 100%

CCS(=O)(=O)c1ccc(F)c(C(=O)N2CCCC[C@H]2c2cc3nc(N4CC[C@H](N)C4)c(C)cn3n2)c1 [Compound 67]
inhibition at 0.5 µM: 21%

Cc1cn2nc([C@@H]3CCCCN3C(=O)c3cccc(F)n3)cc2nc1N1CC[C@H](N)C1 [Compound 81]
inhibition at 0.5 µM: 96%

Cc1cn2nc([C@@H]3CCCCN3C(=O)c3cccc4ccnn34)cc2nc1N1CC[C@H](N)C1 [Compound 54]
inhibition at 0.5 µM: 100%

COc1cc(C)c(C(=O)N2CCCC[C@H]2c2cc3nc(N4C[C@@H](C#N)[C@@H](O)C4)c(C)cn3n2)cc1C [Compound 167]
inhibition at 0.5 µM: 100%

Cc1cn2nc([C@@H]3CCCCN3C(=O)c3cc(Cl)ccc3NS(C)(=O)=O)cc2nc1N1C[C@@H](C#N)[C@@H](OC(=O)[C@H](N)C(C)C)C1 [Compound 204]
inhibition at 0.5 µM: 100%

COc1cccc(C(=O)N2CCCC[C@H]2c2cc3nc(N4CC[C@H](N)C4)c(C)cn3n2)c1C [Compound 84]
inhibition at 0.5 µM: 100%

Cc1cn2nc([C@@H]3CCCCN3C(=O)c3cccc4c3CCCC4)cc2nc1N1C[C@@H](C#N)[C@@H](O)C1 [Compound 162]
inhibition at 0.5 µM: 100%

Cc1cn2nc([C@@H]3CCCCN3C(=O)c3cc(Cl)ccc3NS(C)(=O)=O)cc2nc1N1C[C@@H]2C[C@H]1CN2 [Compound 18]
inhibition at 0.5 µM: 70%

Cc1cn2nc([C@@H]3CCCCN3C(=O)c3cc(C(F)(F)F)ccn3)cc2nc1N1CC[C@H](N)C1 [Compound 86]
inhibition at 0.5 µM: 80%

Cc1ccc(Cl)cc1C(=O)N1CCCC[C@H]1c1cc2nc(N3C[C@@H](C#N)[C@@H](O)C3)c(C)cn2n1 [Compound 202]
inhibition at 0.5 µM: 100%

Cc1cn2nc([C@@H]3CCCCN3C(=O)c3ncc(Cl)cc3C(F)(F)F)cc2nc1N1CC[C@H](N)C1 [Compound 104]
inhibition at 0.5 µM: 56%

Cc1cn2nc([C@@H]3CCCCN3C(=O)c3cc(Cl)ccc3NS(C)(=O)=O)cc2nc1N1C[C@@H](C#N)[C@@H](OC(=O)CN)C1 [Compound 206]
inhibition at 0.5 µM: 100%

COC(=O)[C@H]1C[C@@H](N)CN1c1nc2cc([C@@H]3CCCCN3C(=O)c3cc(Cl)ccc3NS(C)(=O)=O)nn2cc1C [Compound 12]
inhibition at 0.5 µM: 89%

COc1cc(C)ccc1C(=O)N1CCCC[C@H]1c1cc2nc(N3C[C@@H](C#N)[C@@H](O)C3)c(C)cn2n1 [Compound 173]
inhibition at 0.5 µM: 98%

Cc1cn2nc([C@@H]3CCCCN3C(=O)c3ccc(F)cc3F)cc2nc1N1C[C@@H](C#N)[C@@H](O)C1 [Compound 150]
inhibition at 0.5 µM: 99%

Cc1cn2nc([C@@H]3CCCCN3C(=O)c3cccc4c3cnn4C)cc2nc1N1CC[C@H](N)C1 [Compound 98]
inhibition at 0.5 µM: 97%

Cc1cn2nc([C@@H]3CCCCN3C(=O)c3cccc(C)c3C)cc2nc1N1CC[C@H](N)C1 [Compound 87]
inhibition at 0.5 µM: 100%

Cc1cn2nc([C@@H]3CCCCN3C(=O)c3ncc(C(F)(F)F)cc3Cl)cc2nc1N1CC[C@H](N)C1 [Compound 105]
inhibition at 0.5 µM: 31%

Cc1cn2nc([C@@H]3CCCCN3C(=O)c3cc(Cl)ccc3NS(C)(=O)=O)cc2nc1N[C@H]1C[C@H]2C[C@@H]1CN2 [Compound 21]
inhibition at 0.5 µM: 58%

Cc1cn2nc([C@@H]3CCCCN3C(=O)c3cc(Cl)ccc3NS(C)(=O)=O)cc2nc1N1CCN[C@H](Cc2ccccc2)C1 [Compound 17]
inhibition at 0.5 µM: 70%

Cc1cn2nc([C@@H]3CCCCN3C(=O)c3cc(Cl)ccc3NS(C)(=O)=O)cc2nc1NCC(C)N (stereo partly drawn) [Compound 1]
inhibition at 0.5 µM: 100%

COC(=O)[C@H]1C[C@H](N)CN1c1nc2cc([C@@H]3CCCCN3C(=O)c3cc(Cl)ccc3NS(C)(=O)=O)nn2cc1C [Compound 9]
inhibition at 0.5 µM: 99%

Cc1cn2nc([C@@H]3CCCCN3C(=O)c3ccccc3-c3ccccc3)cc2nc1N1C[C@@H](C#N)[C@@H](O)C1 [Compound 180]
inhibition at 0.5 µM: 94%

Cc1cn2nc([C@@H]3CCCCN3C(=O)c3cc(F)c(F)c(Cl)c3F)cc2nc1N1CC[C@H](N)C1 [Compound 28]
inhibition at 0.5 µM: 100%

COc1ccc(F)c(C(=O)N2CCCC[C@H]2c2cc3nc(N4CC[C@H](N)C4)c(C)cn3n2)n1 [Compound 107]
inhibition at 0.5 µM: 100%

Cc1ccc(C(F)(F)F)c(C(=O)N2CCCC[C@H]2c2cc3nc(N4CC[C@H](N)C4)c(C)cn3n2)c1 [Compound 35]
inhibition at 0.5 µM: 100%

Cc1cn2nc([C@@H]3CCCCN3C(=O)c3ccc(C#N)cc3F)cc2nc1N1C[C@@H](C#N)[C@@H](O)C1 [Compound 117]
inhibition at 0.5 µM: 46%

COc1ccsc1C(=O)N1CCCC[C@H]1c1cc2nc(N3C[C@@H](C#N)[C@@H](O)C3)c(C)cn2n1 [Compound 178]
inhibition at 0.5 µM: 100%

CN[C@H]1CCN(c2nc3cc([C@@H]4CCCCN4C(=O)c4cc(Cl)ccc4NS(C)(=O)=O)nn3cc2C)C1 [Compound 11]
inhibition at 0.5 µM: 92%

Cc1cn2nc([C@@H]3CCCCN3C(=O)c3c(Cl)c(C)nn3C)cc2nc1N1C[C@@H](C#N)[C@@H](O)C1 [Compound 182]
inhibition at 0.5 µM: 93%

COc1cc2ccccc2cc1C(=O)N1CCCC[C@H]1c1cc2nc(N3CC[C@H](N)C3)c(C)cn2n1 [Compound 94]
inhibition at 0.5 µM: 88%

Cc1cn2nc([C@@H]3CCCCN3C(=O)c3cc(Cl)ccc3NS(C)(=O)=O)cc2nc1N1C[C@@H](C#N)[C@@H](OC(=O)c2cccnc2)C1 [Compound 208]
inhibition at 0.5 µM: 100%

Cc1cn2nc([C@@H]3CCCCN3C(=O)c3ccc(F)cc3F)cc2nc1N1CC[C@H](N)C1 [Compound 73]
inhibition at 0.5 µM: 99%

Cc1cn2nc([C@@H]3CCCCN3C(=O)c3cccc4[nH]cnc34)cc2nc1N1CC[C@H](N)C1 [Compound 43]
inhibition at 0.5 µM: 88%

COc1cc(C)ccc1C(=O)N1CCCC[C@H]1c1cc2nc(N3CC[C@H](N)C3)c(C)cn2n1 [Compound 92]
inhibition at 0.5 µM: 100%

Cc1ccc(F)cc1C(=O)N1CCCC[C@H]1c1cc2nc(N3CC[C@H](N)C3)c(C)cn2n1 [Compound 78]
inhibition at 0.5 µM: 100%

Cc1cccnc1C(=O)N1CCCC[C@H]1c1cc2nc(N3C[C@@H](C#N)[C@@H](O)C3)c(C)cn2n1 [Compound 179]
Percent inhibition at 0.5 μM (0.5 μM compound, 0.5 µM): 93%

Cc1cn2nc([C@@H]3CCCCN3C(=O)c3cccc4c3OCO4)cc2nc1N1CC[C@H](N)C1 [Compound 61]
inhibition at 0.5 µM: 100%

Cc1cn2nc([C@@H]3CCCCN3C(=O)c3cccc4n[nH]cc34)cc2nc1N1CC[C@H](N)C1 [Compound 108]
inhibition at 0.5 µM: 99%

Cc1cccnc1C(=O)N1CCCC[C@H]1c1cc2nc(N3C[C@@H](C#N)[C@@H](O)C3)c(C)cn2n1 [Compound 159]
inhibition at 0.5 µM: 91%

Cc1cn2nc([C@@H]3CCCCN3C(=O)c3cc(Cl)ccc3NS(C)(=O)=O)cc2nc1NC(CN)c1ccccc1 (stereo partly drawn) [Compound 8]
inhibition at 0.5 µM: 90%

Cc1cn2nc([C@@H]3CCCCN3C(=O)c3cccc(F)c3C)cc2nc1N1CC[C@H](N)C1 [Compound 25]
inhibition at 0.5 µM: 100%
